{"source": "patent US20220378936A1", "about": "“DELIVERY SYSTEM COMPLEXES COMPRISING A PRECIPITATE OF AN ACTIVE AGENT AND METHODS OF USE” (THE UNIVERSITY OF NORTH CAROLINA AT CHAPEL HILL, priority 2019, published 2022)", "key": {"CT26 cells": {"system": "CT26 cells", "assay": "MTT cytotoxicity assay, CT26", "format": "cell-based", "conditions": "Mus musculus; CT26, 24 h incubation", "description": "(§1) MTT assay was applied to determine in vitro cytotoxicity. CT26 and Hepa1-6 cells (1×10^4/well) were cultured within 96-well plates, respectively. Following one day incubation, 5-Fu, Nano-dUMP and Nano-FdUMP were added to cells for 24 h. […] IC50 was calculated using the GraphPad Prism software."}, "Hepa1-6 cells": {"system": "Hepa1-6 cells", "assay": "MTT cytotoxicity assay, Hepa1-6", "format": "cell-based", "conditions": "Mus musculus; Hepa1-6, 24 h incubation", "description": "as §1"}, "cells": {"system": "cells", "conditions": "free FdUMP; cited from earlier work"}, "CT26-FL3 cells": {"system": "CT26-FL3 cells", "assay": "MTT cytotoxicity assay", "format": "cell-based, mouse", "procedure": "Cytotoxicity of Nano-Folox was estimated using the MTT assay with 3-(4,5-Dimethylthiazol-2-yl)-2,5-diphenyltetrazolium bromide^60. 10,000 CT26-FL3 cells per well were seeded in 96-well plates and incubated for one day. After incubation, cells were added with OxP and Nano-Folox for 24 h under normal growth conditions. Subsequently, cells were added with 20 μL MTT reagent (5 mg/mL in PBS) and incubated for 4 h at 37° C. 150 μL DMSO were used to dissolve the purple formazan products. The results were measured at 570 nm using a microplate reader. The 50% cell growth inhibition (IC50) was estimated using the GraphPad Prism software."}, "[1]": {"assay": "Pharmacokinetics of platinum in orthotopic CRC mice", "format": "in vivo, mouse", "conditions": "single i.v. injection, one-compartmental model", "excerpt": "(§2) The orthotopic CT26-FL3 colorectal tumor model was established as previously described^31."}, "[2]": {"assay": "Tissue distribution of Nano-Folox in orthotopic CRC mice (IVIS, ICP-MS)", "format": "in vivo, mouse", "conditions": "8 h after i.v. administration, 1.5 mg/kg platinum", "description": "as §2\nIn addition, — 0.05% (wt) of lipophilic carbocyanine DiD (ThermoFisher) was used to formulate the DiD-labeled Nano-Folox (1.5 mg/kg platinum). Following 8 h i.v. injection of DiD-labeled Nano-Folox, major organs and tumors were collected and analyzed using the IVIS® Kinetics Optical System, with the excitation wavelength at 640 nm and the emission wavelength at 670 nm. The concentration of platinum in major organs and tumors was also measured using ICP-MS^8."}, "[3]": {"assay": "Aqueous solubility of stabilized nanoprecipitates", "format": "physicochemical", "conditions": "DOPA-stabilized nanoprecipitates"}, "[4]": {"assay": "Particle size, zeta potential and morphology of Nano-Folox (Malvern Nano-ZS, TEM)", "conditions": "FIG. 2A", "description": "The measurements of particle size and zeta potential of Nano-Folox were performed using the Malvern Nano-ZS (Malvern Instruments, UK)^59. The morphology of nanoprecipitates and Nano-Folox was analyzed using transmission electron microscopy (TEM). Briefly, 5 μL Nano-Folox were added on 400-mesh carbon-filmed copper grids (Agar Scientific) for 2 min. The samples were stained with 2% (w/w) uranyl acetate before the analysis using the JEM1230 (JEOL) TEM. Alternatively, the morphology of the core was analyzed without the negative staining."}}}
{"smiles": "O=c1[nH]cc(F)c(=O)[nH]1", "note": "[5-Fu, 5-fluorouracil]", "values": [{"measurement": "IC50", "setting": "CT26 cells", "value": "~70", "unit": "µM"}, {"measurement": "IC50", "setting": "Hepa1-6 cells", "value": "~70", "unit": "µM"}]}
{"smiles": "O=c1[nH]c(=O)n([C@H]2C[C@H](O)[C@@H](COP(=O)(O)O)O2)cc1F", "note": "[FdUMP, 5-Fluoro-2′-deoxyuridine 5′-monophosphate]", "values": [{"measurement": "permeability into cells", "setting": "cells", "value": "impermeable into cells"}]}
{"smiles": "Nc1nc2c(c(=O)[nH]1)N(C=O)C(CNc1ccc(C(=O)N[C@@H](CCC(=O)O)C(=O)O)cc1)CN2", "note": "(stereo partly shown) [FnA, folinic acid]", "values": [{"measurement": "proliferation of CT26-FL3 cells", "setting": "CT26-FL3 cells; FnA alone, data not shown", "value": "not inhibited"}]}
{"smiles": "O=C1[O][Pt]2([NH][C@@H]3CCCC[C@H]3[NH]2)[O]C1=O", "note": "[OxP, oxaliplatin]", "values": [{"measurement": "half-life (t1/2) of platinum", "setting": "[1]", "value": "~8", "unit": "min"}, {"measurement": "IC50", "setting": "CT26-FL3 cells; 24 h incubation, read-out: IC50 (50% cell growth inhibition)", "value": 24, "unit": "µM"}, {"measurement": "liver uptake of platinum", "setting": "[2]", "value": "~35", "unit": "% ID/g"}, {"measurement": "tumor accumulation of platinum", "setting": "[2]", "value": "~15", "unit": "% ID/g"}]}
{"smiles": "Nc1nc(=O)c2c([nH]1)NCC(CNc1ccc(C(=O)NC3CCC(=O)[O][Pt]4([NH]C5CCCCC5[NH]4)[O]C3=O)cc1)N2C=O", "note": "(stereo not shown) [Pt(DACH).FnA precipitate, dihydrate(1,2-diaminocyclohexane)platinum(II)-folinic acid]", "values": [{"measurement": "solubility in water", "setting": "[3]", "value": "poorly soluble in water"}, {"measurement": "particle size of the DOPA-stabilized precipitate", "setting": "[4]", "value": "~100", "unit": "nm"}]}
